System: P. yoelii liver stage parasites (18S rRNA)
Test: Real-time PCR quantification of P. yoelii parasites in mouse livers
Assay type: in vivo, Swiss mice
Conditions: 42 h PI
Experimental: Female 6-wk-old Swiss mice weighing 24–31 g were randomly allotted to three groups. The drug to be tested was administrated orally on days −1, 0, and +1. Group 1 received 100 mg/kg/d of NCP-tazopsine (n = 4), group 2 received 200 mg/kg/d of NCP-tazopsine (n = 6), whereas the control group received Tween 80 at 10% in sterile water (n = 5). Mice were challenged on day 0 by retro-orbital injection with 120,000 P. yoelii sporozoites and sacrificed 42-h postinoculation. A piece of liver (0.2 g) was harvested and total RNA extracted using the Micro to Midi kit (Invitrogen) according to the manufacturer's instructions. The detection and quantification of liver stage parasites were done as described with minor modifications. Five micrograms of total RNA were treated with DNase from the Turbo DNA-free kit (Ambion, Huntingdon, United Kingdom) and reverse transcribed by Superscript II (Invitrogen) according to the manufacturer's instructions. A total of 6 μl of the 300 μl obtained (an equivalent to 100 ng of the starting total RNA) were used per TaqMan PCR assay (MX4000 multiplex quantitative PCR system; Stratagene, La Jolla, California, United States). […] Lack of nonspecific amplification with mouse genomic DNA was determined in preliminary experiment (unpublished data). […] Absolute transcript copy number for each gene was calculated based on their external standard curves. […]

## COC1=C2[C@@H]3[C@H](O)c4ccc(OC)c(O)c4[C@]2(CCN3C2CCCC2)C[C@H](O)[C@@H]1O [NCP-tazopsine, N-cyclopentyl-tazopsine]
Fully protective dose (200 mg/kg/d oral), 120,000 sporozoites
  reduction of liver parasite load versus controls: 99.98%
Suboptimal dose (100 mg/kg/d oral), 120,000 sporozoites
  reduction of liver parasite load versus controls: 98.58%

From PMC1716192, “A Plant-Derived Morphinan as a Novel Lead Compound Active against Malaria Liver Stages” (PLoS Medicine, 2006)
